The text below walks through data of article PMC8775498, “Development of Cobalt-Binding Peptide Chelate from Human Serum Albumin: Cobalt-Binding Properties and Stability” (International Journal of Molecular Sciences, 2022).

One series is described as follows: in vitro. To be noted: mouse, RAW 264.7 cells. In kind it is cell-based, rat. As to the method: (§1) RAW 264.7 and HEK 293T cells were cultured at 37 °C under 5% CO2 in 95% DMEM supplemented with 10% FBS and 1% P/S antibiotics. The RAW 264.7 and HEK 293T cells were harvested in 3 mL of DMEM, and centrifugation was performed at 1200× g using the AllegraTM X-12R centrifuge (BECKMAN COULTER). The cell pellet was resuspended in 1 mL of DMEM. The number of cells was counted using a hemocytometer. The cell viability was measured using MTT assay according to the method of Mirzapour-Kouhdasht, Moosavi-Nasab, with a few modifications. The cells were first plated at a density of a 5 × 10^4 cells/well in a 96-well plate. After overnight incubation, the wAlb12 and wAlb12 + Co(II) each dissolved in buffer were used to treat the cells by concentration, which were then incubated for 24 h at 37 °C. Next, 10 µL of 5 mg mL^−1 MTT stock solution was added to each well, and the plate was incubated for 4 h at 37 °C. Next, the medium was removed and 100 µL of DMSO was added to each well to lyse the cells. The treated cells were incubated at 37 °C for 20 min and their absorbance was measured at a wavelength of 600 nm using an ELISA reader (Autobio, Phomo). The percentage viability was calculated using the following formula:Cell viability (%) = [(As) − (Ab)]/[(Ac) − (Ab)] × 100 where As, Ab, and Ac are the absorbance values of the peptide-treated cells, blank, and control samples, respectively.

Another series deals with HEK 293T cells. In kind it is cell-based, human. The protocol:
as §1

Series [1] is described as follows: LC-MS analysis of Co(II) binding (alanine scanning analogs). To be noted: 0.5 mM peptide mixed with 0.5 mM CoCl2; judged by change in molecular weight (about 56) and retention time in LC-MS. As to the method: A mutation was performed to identify the binding properties of wAlb12. […] amino acids of wAlb12 were substituted with alanine and the remaining alanine of wAlb12 was substituted with serine (D1A, A2S, H3A, K4A, S5A, E6A, V7A, A8S, H9A, R10A, F11A, and K12A). In addition, the N-terminal region of wAlb12 was acetylated (Ac-wAlb12). The only N-terminal α-amino group of wAlb12 was acetylated under 70% DCM, 25% acetic anhydride, and 5% triethylamine for 2 h after Fmoc cleavage by 20% piperidine. All of the analogs were synthesized by SPPS, and the purity and molecular weight were confirmed using liquid chromatography-mass spectrometry (LC-MS). The high-performance liquid chromatography (HPLC) gradient program was set up with 5% to 35% buffer B for 15 min, and the molecular weights of the prepared analogs were confirmed using MS in the range of 200 to 1800 m/z.
To verify the binding of peptides to Co(II), HPLC and LC-MS were performed to confirm the retention time and molecular weight. RT-HPLC analyses were performed using Shimadzu 10AD system with a Sunfire® column (C18 5 μm 4.6 mm × 250 mm, Waters, Milford, MA, USA) and a flow rate of 1 mL/min with buffer B (100% acetonitrile containing 0.05% TFA) and buffer A (100% H2O containing 0.05% TFA). The eluted components were monitored at an absorbance of 230 nm with a gradient from 5% to 35% of buffer B for 15 min. […]

Where a SMILES comes first, the peptide text is derived from it.

In the case of `CC(C)[C@H](NC(=O)[C@H](CCC(=O)O)NC(=O)[C@H](CO)NC(=O)[C@H](CCCCN)NC(=O)[C@H](Cc1c[nH]cn1)NC(=O)[C@H](C)NC(=O)[C@@H](N)CC(=O)O)C(=O)N[C@@H](C)C(=O)N[C@@H](Cc1c[nH]cn1)C(=O)N[C@@H](CCCNC(=N)N)C(=O)N[C@@H](Cc1ccccc1)C(=O)N[C@@H](CCCCN)C(N)=O` [wAlb12] (H-DAHKSEVAHRFK-NH2), the viability at 24 h in the series “in vitro” was > 100%. Moreover, in the series on HEK 293T cells, the “toxicity to HEK 293T cells” value is “non-toxic”.

As to “Ac-DAHKSEVAHRFK [Ac-wAlb12, wAlb12 with acetylated N-terminal α-amino group]”, the “Binding (adding Co(II))” value in series [1] was “not bound and No”.

Broadly, the viability is a read-out of living cells in per cent, often relative to untreated cells. Read a high viability as better survival.
